Assay results: PubChem BioAssay AID2128 (The Scripps Research Institute Molecular Screening Center, 2009)

Biological target: Beta-lactamase (Pseudomonas aeruginosa) (UniProt Q932Y6)
Test: VIM-2 metallo-beta-lactamase inhibition constant, late-stage follow-up, mechanism study, biochemical, probe results (AID 2128)
Conditions: purified enzyme, nitrocefin hydrolysis absorbance/fluorescence, enzyme assay, VIM-2 inhibition constant, kinetics

`O=c1[nH]c2c(s1)C(c1cccnc1)C1C3CCC(C3)C1S2` (stereo unspecified) gave a Ki of 148 nM.
